Data as given in patent US11987570B1, “10-(2-hydroxyethyl)-9-(2-hydroxypyridin-3-yl)-3,4,6,7,9,10-hexahydroacridine-1,8(2H,5H)-dione as an antimicrobial compound” (KING FAISAL UNIVERSITY, priority 2023, dated 2024).

Experiments:
Assay type in all cases: cell-based
Settings in all cases: after 10, 20, 40 and 60 minutes at all dilutions 1:100, 1:200, 1:400, 1:800
Staphylococcus aureus = test: Antimicrobial screening by agar dilution, Staphylococcus aureus
Method: (§1) The antibacterial properties of the synthesized compound (10-(2-hydroxyethyl)-9-(2-hydroxypyridin-3-yl)-3,4,6,7,9,10-hexahydroacridine-1,8(2H,5H)-dione) were studied by the method of agar dilution. Test solutions of each compound was prepared in concentration of 1% using dimethylformamide as a solvent then they are diluted in physiological solution to obtain the final experimental dilutions 1:100, 1:200, 1:400, 1:800. The effect of these substances are compared with furacillin in a controllable study. The testing microbes used were gram positive bacteria Staphylococcus aureus, gram negative bacteria Pseudomonas aeruginosa and Escherichia coli and Candida albicans fungus. The experiments used for this survey were meat-pentonlu agar (EPA) for cultivation of bacteria and Saburo environment for the fungus. Each experiment used 1 mL of test solution on each plate […]. Two drops of emulsified with microbes feel were added. All experimental samples were taken from the agar after 10, 20, 40, 60 minutes in the environment on the basis of Patrk planted. The bacteria were cultivated at a temperature of 37° C. for 1 day and the mushroom was kept in a thermostat for 2 hours at a temperature of 28° C. Then results were checked.

Candida albicans = test: Antimicrobial screening by agar dilution, Candida albicans
Method: as §1

Pseudomonas aeruginosa = test: Antimicrobial screening by agar dilution, Pseudomonas aeruginosa
Method: as §1

Escherichia coli = test: Antimicrobial screening by agar dilution, Escherichia coli
Method: as §1

Measured: inhibition activity

O=C1CCCC2=C1C(c1cccnc1O)C1=C(CCCC1=O)N2CCO [10-(2-hydroxyethyl)-9-(2-hydroxypyridin-3-yl)-3,4,6,7,9,10-hexahydroacridine-1,8(2H,5H)-dione]
highest inhibition activity: all assays above
